Test results reported in patent US4818753A, “Synthesis and method of use for 2, 4 diaminoquinazoline” (SRI International, priority 1987, dated 1989).
Like-named read-outs stand apart in the source and are kept apart here.

Columns and labels:
Format in all cases: cell-based
[1] = test system: Candida albicans (10231); experiment: Broth dilution assay, F1
Experimental: (§1) Both broth dilution and agar dilution assays were used to assess the antifungal activity of the compounds of the invention. The cultures were maintained in Sabouraud dextrose broth (SDB) and diluted with […]. 2.5 l of SDB was prepared and distributed into sterile vessels as follows: 49 ml into 1 vessel, 27 ml into 3 vessels, 45 ml into 2 vessels.
(§2) Five mg/ml concentration of each compound was prepared using DMSO as the solvent; warming and sonication were necessary to dissolve each compound completely. The compounds were then diluted in SDB according to the following protocol:
(§3) 5. 1 ug/ml--5 ml (3)+45 ml SDB
(§4) The compound at each concentration in SDB was then dispensed into 6 tubes each containing 4 ml […]. Controls (without any compound) were also prepared to insure that the solvent itself was not fungicidal or fungistatic.
(§5) Cultures were grown in SDB for 24 h at 30° C. C. albicans and C. neoformans were diluted 1:10 in SDB before inoculation. Inoculation volume for yeasts was 2 drops of diluted cells per tube. The fungal cultures were homogenized before inoculation. The same volume was added, but without dilution. All tubes were incubated at room temperature on a rotating wheel. After 16 h of incubation at room temperature, the fungistatic assay was set up on agar plates. […] Yeasts were inoculated onto SDA (the corresponding agar) plates and fungi onto mycosel agar plates. These plates were then incubated at room temperature.

[2] = test system: Cryptococcus neoformans (13690); experiment: Broth dilution assay, F3
Experimental: as §1, §2, §3, §4, §5

[3] = test system: Epidermophyton floccosum (15693); experiment: Broth dilution assay, F4
Experimental: as §1, §2, §3, §4, §5

[4] = test system: Microsporum gypseum (14683); experiment: Broth dilution assay, F12; conditions: Nannizzia gypsea
Experimental: as §1, §2, §3, §4, §5

[5] = test system: Aspergillus fumigatus MY4839; experiment: Agar dilution assay; conditions: MY4839, 48 h
Excerpt: (§6) For the agar dilution assay, the test panel consisted of 18 yeastlike and 3 Filamentus fungii. Four media were used. These were yeast nitrogen base dextrose (0.5% agar) (YNBDA); pH 5.5; YNBDA with pH adjusted to pH 7.5; and micrological agar (MA), pH 7.0; and Sabouraud dextrose agar, pH 5.7. The media was manufactured by Difco (Detroit, MI) and prepared according to the manufacturer's instructions.
(§7) The test compounds were solubilized in 10% aqueous DMSO; the control drug, Nystatin, was solublized in 10% aqueous DMF. The drugs were serially diluted twofold in sterile water to yield concentrations of 1.28 mg/ml to […]. One ml of diluted drug was added to 9 ml of cooled (50° C.) molten agar in plastic petri plates to yield final drug concentrations in the agar ranging from 128 to 0.063 ug/ml. Appropriate solvent and media control plates were prepared as well, and all plates stored in the dark at 4° C. overnight. The yeast cultures, maintained in yeast maltose (YM; Difco), were transferred to fresh YM medium and incubating overnight at 37° C. with shaking at 250 rpm. After incubation each culture was diluted in sterile saline to yield concentrations of 3×10^5 to 3×10^6 cfu/ml. Isolates of aspergillis and penicillium were made on potato dextrose agar slants, and spore suspensions were made following vigorous shaking with sterile glass beads. The spore preparation were used as inocula for these fungi.
(§8) Each prepared place was inoculated with the 21-member panel using a Denleigh multipoint inoculator (Sussex, England). The inoculator delivers approximately 1 ul to the agar surface, resulting in inoculation of from 3×10^2 to 3×10^3 cfu. The plates were incubated at 28° C. for 48 h, and the minimum inhibitory concentrations (MIC) of each drug were recorded as the lower concentration of the drug permitting no growth or growth of less than 3 cfu/spot.

[6] = test system: Ca. albicans MY0992; experiment: Agar dilution assay; conditions: Candida albicans, MY0992, 48 h, read-out: Minimum inhibitory concentration
Excerpt: as §6, §7, §8

[7] = test system: Ca. albicans MY1013; experiment: Agar dilution assay; conditions: Candida albicans, MY1013, 48 h, read-out: Minimum inhibitory concentration
Excerpt: as §6, §7, §8

[8] = test system: Ca. albicans MY1029; experiment: Agar dilution assay; conditions: Candida albicans, MY1029, 48 h, read-out: Minimum inhibitory concentration
Excerpt: as §6, §7, §8

[9] = test system: Ca. krusei MY1020; experiment: Agar dilution assay; conditions: Pichia kudriavzevii, MY1020, 48 h, read-out: Minimum inhibitory concentration
Excerpt: as §6, §7, §8

[10] = test system: Ca. parapsilosis MY1009; experiment: Agar dilution assay; conditions: MY1009, 48 h, read-out: Minimum inhibitory concentration
Excerpt: as §6, §7, §8

[11] = test system: Cr. neoformans MY1146; experiment: Agar dilution assay; conditions: Cryptococcus neoformans, MY1146, 48 h, read-out: Minimum inhibitory concentration
Excerpt: as §6, §7, §8

CCCCCCCCc1ccc2nc(N)nc(N)c2c1C [2,4-Diamino-5-methyl-6-n-octylquinazoline]
1 µg/mL: MIC ([3]; Table 2, F4, Sabouraud Dextrose Broth pH 5.5, read-out: S Fungistatic)
30 µg/mL: MFC ([3]; Table 2, F4, Sabouraud Dextrose Broth pH 5.5, read-out: C Fungicidal) | MIC ([4]; Table 2, Sabouraud Dextrose Broth pH 5.5, read-out: S Fungistatic)
100 µg/mL: MFC ([1]; Table 2, F1, Sabouraud Dextrose Broth pH 5.5, read-out: C Fungicidal) | MFC ([4]; Table 2, Sabouraud Dextrose Broth pH 5.5, read-out: C Fungicidal)
10 µg/mL: MIC ([1]; Table 2, F1, Sabouraud Dextrose Broth pH 5.5, read-out: S Fungistatic)
32 µg/mL: MIC ([5]; YNBDA pH 7.5, read-out: Minimum inhibitory concentration) | MIC ([8]; MA pH 7.0) | MIC ([8]; YNBDA pH 7.5)
> 128 µg/mL: MIC ([5]; SDA pH 5.7, read-out: Minimum inhibitory concentration) | MIC ([5]; YNBDA pH 5.5, read-out: Minimum inhibitory concentration) | MIC ([6]; SDA pH 5.7) | MIC ([6]; YNBDA pH 5.5) | MIC ([7]; YNBDA pH 5.5) | MIC ([8]; SDA pH 5.7) | MIC ([8]; YNBDA pH 5.5) | MIC ([9]; SDA pH 5.7) | MIC ([9]; YNBDA pH 5.5) | MIC ([10]; SDA pH 5.7) | MIC ([10]; YNBDA pH 5.5)
128 µg/mL: MIC ([7]; SDA pH 5.7) | MIC ([11]; YNBDA pH 5.5)
16 µg/mL: MIC ([6]; MA pH 7.0) | MIC ([6]; YNBDA pH 7.5) | MIC ([7]; MA pH 7.0) | MIC ([7]; YNBDA pH 7.5) | MIC ([10]; YNBDA pH 7.5) | MIC ([11]; SDA pH 5.7)
3 µg/mL: MFC ([2]; Table 2, F3, Sabouraud Dextrose Broth pH 5.5, read-out: C Fungicidal) | MIC ([2]; Table 2, F3, Sabouraud Dextrose Broth pH 5.5, read-out: S Fungistatic)
64 µg/mL: MIC ([5]; MA pH 7.0, read-out: Minimum inhibitory concentration)
8 µg/mL: MIC ([9]; MA pH 7.0) | MIC ([9]; YNBDA pH 7.5) | MIC ([10]; MA pH 7.0) | MIC ([11]; YNBDA pH 7.5)
4 µg/mL: MIC ([11]; MA pH 7.0)
